The text below walks through data of US7728014B2, “Heteroaromatic compounds having sphingosine-1-phosphate (S1P) receptor agonist biological activity” (Allergan, Inc., priority 2006, dated 2010).

By EC50 is commonly meant the concentration giving half of the maximal effect.

Each structure is given as a SMILES string.

The target in experiment [1] is T1, human S1P3 receptor (Homo sapiens, UniProt Q99500).
T1 construct: expressed in transfected cells
As to the kind of experiment: FLIPR Ca+2 response assay, activation of human S1P3 receptor in T24 cells. The experiment is classed as cell-based. The conditions noted are these: for EC50: T24 cells stably expressing human S1P3, tested 0.61 nM to 10,000 nM; for Emax at 10 µM: T-24, receptor activity at highest dose (10 μM) relative to that induced by 5 nM sphingosine-1-phosphate, read-out: S1P3 (% efficacy). How it is done: Compounds were also assessed for their ability to activate or block activation of the human S1P3 receptor in T24 cells stably expressing the human S1P3 receptor. Ten thousand cells/well were plated into 384-well poly-D-lysine coated plates one day prior to use. The growth media for the S1P3 receptor expressing cell line was McCoy's 5A medium supplemented with 10% charcoal-treated fetal bovine serum (FBS), 1% antibiotic-antimycotic and 400 μg/ml geneticin. On the day of the experiment, the cells were washed twice with Hank's Balanced Salt Solution supplemented with 20 mM HEPES (HBSS/Hepes buffer). The cells were then dye loaded with 2 uM Fluo-4 diluted in the HBSS/Hepes buffer with 1.25 mM Probenecid and incubated at 37° C. for 40 minutes. Extracellular dye was removed by washing the cell plates four times prior to placing the plates in the FLIPR (Fluorometric Imaging Plate Reader, Molecular Devices). Ligands were diluted in HBSS/Hepes buffer and prepared in 384-well microplates. The positive control, Sphingosine-1-Phosphate (S1P), was diluted in HBSS/Hepes buffer with 4 mg/ml fatty acid free bovine serum albumin. The FLIPR transferred 12.5 μl from the ligand microplate to the cell plate and took fluorescent measurements for 75 seconds, taking readings every second, and then for 2.5 minutes, taking readings every 10 seconds. Drugs were tested over the concentration range of 0.61 nM to 10,000 nM. Data for Ca^+2 responses were obtained in arbitrary fluorescence units and not translated into Ca^+2 concentrations. IC50 values were determined through a […] regression analysis using the Levenburg Marquardt algorithm. In Table 1, NA is defined as “Not Active,” ND is defined as “Not Determined,” % efficacy is defined as “percent of receptor activity induced by a test compound at the highest dose test (10 μM) relative to the receptor activity induced by 5 nM sphingosine-1-phosphate,” and % inhibition is defined as “percent of receptor activity induced by 5 nM sphingosine-1-phosphate that is inhibited by a test compound at the highest dose tested (10 μM).”

Experiment [2] has as its system perfused porcine eyes. Particulars: IOVS 45, 2263, 2004; cited from earlier work.

T1 sequence (Q99500 whole entry): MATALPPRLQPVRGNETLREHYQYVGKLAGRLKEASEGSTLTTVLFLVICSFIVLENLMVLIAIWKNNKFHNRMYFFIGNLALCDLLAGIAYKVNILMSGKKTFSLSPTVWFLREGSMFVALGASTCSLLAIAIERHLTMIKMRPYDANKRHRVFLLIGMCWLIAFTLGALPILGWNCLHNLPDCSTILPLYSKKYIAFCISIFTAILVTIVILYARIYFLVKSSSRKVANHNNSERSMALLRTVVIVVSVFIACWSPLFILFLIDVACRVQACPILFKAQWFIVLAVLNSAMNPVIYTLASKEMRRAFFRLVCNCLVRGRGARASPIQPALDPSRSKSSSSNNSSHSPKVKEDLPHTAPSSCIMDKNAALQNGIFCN

As for `CCOC(=O)c1nnc(-c2ccc(CC)cc2)c(-c2ccccc2)n1` [Example 13, Ethyl 6-(4-Ethylphenyl)-5-phenyl-1,2,4-triazine-3-carboxylate], the midpoint of the response in experiment [1] (NA = Not Active), the EC50, lay at 1.6 µM. In addition, the Emax at 10 µM in experiment [1] is 57%.
As for `CCOC(=O)c1nnc(-c2ccc(C)cc2)c(-c2ccccc2)n1` [Example 17, Ethyl 5-Phenyl-6-p-tolyl-1,2,4-triazine-3-carboxylate], the concentration for a half-maximal effect (EC50) in experiment [1] (NA = Not Active) worked out at 2.9 µM.
Turning to `CCOC(=O)c1nnc(-c2ccccc2)c(-c2ccc(C(F)(F)F)cc2)n1` [Example 19, Ethyl 5-(4-Trifluoromethylphenyl)-6-phenyl-1,2,4-triazine-3-carboxylatate], the Emax at 10 µM in experiment [1] stood at 34%.
The molecule `CCOC(=O)c1ccc(-c2ccccc2)c(-c2ccccc2)n1` [Example 21, Ethyl 5,6-diphenylpyridine-2-carboxylate] gave a 50% effective concentration (EC50) in experiment [1] (NA = Not Active) of 1.8 µM. Besides, the Emax at 10 µM in experiment [1] was found to be 80%.
On to `CCOC(=O)c1ccc(-c2ccc(C)cc2)c(-c2ccccc2)n1` [Example 22, Ethyl 6-Phenyl-5-p-tolyl-pyridine-2-carboxylate], for which the EC50 in experiment [1] (NA = Not Active) is 0.74 µM. For the same molecule, the Emax at 10 µM in experiment [1] came to 32%.
Consider `CCOC(=O)c1ccc(-c2ccc(CC)cc2)c(-c2ccccc2)n1` [Example 23, Ethyl 5-(4-Ethyl-phenyl)-6-phenyl-pyridine-2-carboxylate], for which the midpoint of the response in experiment [1] (NA = Not Active), the EC50, lay at 1.4 µM. Moreover, the Emax at 10 µM in experiment [1] is 82%.
For `CCCc1ccc(-c2ccc(C(=O)OCC)nc2-c2ccccc2)cc1` [Example 24, Ethyl 6-Phenyl-5-(4-propylphenyl)-pyridine-2-carboxylate] the same measures were 3.1 µM and 50%.
For `CCOC(=O)c1ccc(-c2ccccc2)c(-c2ccc(C)cc2)n1` [Example 27, Ethyl 5-Phenyl-6-p-tolyl-pyridine-2-carboxylate] the same measures were 3.7 µM and 46%.
For `CCOC(=O)c1ccc(-c2ccccc2)c(-c2ccc(CC)cc2)n1` [Example 28, Ethyl 6-(4-Ethylphenyl)-5-phenyl-pyridine-2-carboxylate] the same measures were 2.9 µM and 48%.
In experiment [1] (NA = Not Active), `COC(=O)c1ccc(-c2ccccc2)c(-c2ccccc2)n1` [Example 30, Methyl 5,6-diphenylpyridine-2-carboxylate] came in with a 50% effective concentration (EC50) of 0.7 µM. The Emax at 10 µM in experiment [1] was found to be 84%.
For `COC(=O)c1ccc(-c2ccc(C)cc2)c(-c2ccccc2)n1` [Example 31, Methyl 6-Phenyl-5-p-tolyl-pyridine-2-carboxylate] the same measures were 0.58 µM and 73%.
For `CCc1ccc(-c2ccc(C(=O)OC)nc2-c2ccccc2)cc1` [Example 32, Methyl 5-(4-Ethylphenyl)-6-phenyl-pyridine-2-carboxylate] the same measures were 0.57 µM and 88%.
`CCCc1ccc(-c2ccc(C(=O)OC)nc2-c2ccccc2)cc1` [Example 33, Methyl 6-Phenyl-5-(4-propylphenyl)-pyridine-2-carboxylate] showed a concentration for a half-maximal effect (EC50) in experiment [1] (NA = Not Active) of 2.9 µM. In addition, in experiment [1], the Emax at 10 µM came to 81%.
Take `COC(=O)c1ccc(-c2ccccc2)c(-c2ccc(C(F)(F)F)cc2)n1` [Example 35, Methyl 5-Phenyl-6-(4-trifluoromethylphenyl)-pyridine-2-carboxylate]: the EC50 in experiment [1] (NA = Not Active) is 2.3 µM. In addition, the Emax at 10 µM in experiment [1] was 91%.
For `CCc1ccc(-c2ccc(C(=O)OC)nc2-c2ccncc2)cc1` [Example 52, Methyl 5-(4-Ethylphenyl)-6-(pyridin-4-yl)pyridine-2-carboxylate], in experiment [1], the EC50 came to 0.34 µM and the Emax at 10 µM was determined as 90%.
For the molecule `CC(=O)c1ccc(-c2ccccc2)c(-c2ccccc2)n1` [Example 75, 1-(5,6-Diphenyl-pyridin-2-yl)-ethanone], in experiment [1] (NA = Not Active), the 50% effective concentration (EC50) is above 10 µM. In addition, in experiment [1], the Emax at 10 µM is 51%.
For `CCC(=O)c1ccc(-c2ccccc2)c(-c2ccccc2)n1` [Example 76, 1-(5,6-Diphenyl-pyridin-2-yl)-propan-1-one] the same measures were 3.4 µM and 41%.
`CCC(=O)c1ccc(-c2ccccc2)c(-c2ccc(C(F)(F)F)cc2)n1` [Example 79, 1-[5-Phenyl-6-(4-trifluoromethyl-phenyl)-pyridin-2-yl]-propan-1-one] registered an EC50 in experiment [1] (NA = Not Active) of 2.6 µM. Besides, the Emax at 10 µM in experiment [1] worked out at 30%.
The corresponding values for `CCc1ccc(-c2nnc(C(=O)OC)nc2-c2ccccc2)cc1` [Example 89, Methyl 6-(4-Ethyl-phenyl)-5-phenyl-1,2,4-triazine-3-carboxylate] are 2.3 µM and 64%.
With `COCc1ccc(-c2ccccc2)c(-c2ccccc2)n1` [Example 92, 6-Methoxymethyl-2,3-diphenyl-pyridine], it took 2.4 µM to reach a half-maximal effect in experiment [1] (NA = Not Active) (EC50). Moreover, the Emax at 10 µM in experiment [1] is 59%.
Take `COC(=O)c1cnc(-c2ccccc2)c(-c2ccccc2)n1` [Example 93, Methyl 5,6-Diphenyl-pyrazine-2-carboxylate]: the midpoint of the response in experiment [1] (NA = Not Active), the EC50, lay at 4.1 µM. Also, in experiment [1], the Emax at 10 µM was found to be 62%.
For `CC(=O)c1cnc(-c2ccccc2)c(-c2ccccc2)n1` [Example 94, 1-(5,6-Diphenyl-pyrazin-2-yl)-ethanone] the same measures were 2.3 µM and 61%.
Regarding `CCC(=O)c1cnc(-c2ccccc2)c(-c2ccccc2)n1` [Example 95, 1-(5,6-Diphenyl-pyrazin-2-yl)-propan-1-one], in experiment [1] (NA = Not Active), it took 4.4 µM to reach a half-maximal effect (EC50). In addition, in experiment [1], the Emax at 10 µM turned out to be 95%.
In the case of `CCCCCCCCCCCCC/C=C/[C@@H](O)[C@@H](N)COP(=O)(O)O` [Example S1P, Sphingosine-1-Phosphate], in experiment [2], the “decrease of outflow facility” value is above 30%.
